According to patent publication US20140248218A1, “ROS-SENSITIVE FLUORESCENT PROBES” (The Regents of the University of California, priority 2013, published 2014):

Legend:
mouse spinal cord = experiment: Confocal fluorescence imaging of H2O2 in mouse spinal cord tissue sections (ex vivo); conditions: 50 μM probe 1 h
Description: (§1) 3-4 week old female C57BL/6J mice were purchased from Jackson Laboratory (Bar Harbor, Me.). Mice were sacrificed and perfused with sterile PBS. The brain and spinal cord were harvested and imbedded in Tissue-Tek® OCT Compound (Sakura Finetek USA, Torrance, Calif.) and frozen in dry ice before storage at −80° C. All animal studies were reviewed and approved by the University of California, San Diego Institutional Animal Care and Use Committee (La Jolla, Calif.).
For confocal microscopy, the frozen tissue was cut into 10-μm sections on a Leica cryomicrotome and mounted on slides. Tissue sections were fixed in ice-cold 95% ethanol for 15 min and rehydrated in PBS for 5 min at room temperature in a humidity chamber. Tissue sections were either incubated with PBS or 100 μM H2O2 for 1 h at room temperature in a humidity chamber, followed by a 1 h incubation with either 50 μM probe (FBBBE) or 50 μM control (FBn) and a 10 min nuclear stain (DAPI, 4′,6-diamidino-2-phenylindole). The sections were rinsed in PBS and hydrated in water. […]
To further investigate whether FBBBE is activated by truly endogenous levels of H2O2, the probe was evaluated in the spinal cord. […] The lack of fluorescence signal from the H2O2-treated samples may be due to an inability of FBBBE to penetrate the spinal cord tissues, which is then subsequently washed away before the image is taken.

mouse brain = experiment: Confocal fluorescence imaging of H2O2 in mouse brain tissue sections (ex vivo); conditions: for fluorescence turn-on in brain tissue: 50 μM compound 1 h, sections incubated with PBS or 100 μM H2O2
Description: as §1
For confocal microscopy, the frozen tissue was cut into 10-μm sections on a Leica cryomicrotome and mounted on slides. Tissue sections were fixed in ice-cold 95% ethanol for 15 min and rehydrated in PBS for 5 min at room temperature in a humidity chamber. Tissue sections were either incubated with PBS or 100 μM H2O2 for 1 h at room temperature in a humidity chamber, followed by a 1 h incubation with either 50 μM probe (FBBBE) or 50 μM control (FBn) and a 10 min nuclear stain (DAPI, 4′,6-diamidino-2-phenylindole). The sections were rinsed in PBS and hydrated in water. Coverslips were mounted using Aqua Mount (Thermo Scientific, Waltham, Mass.). Confocal images were obtained at 40× or 80× magnification on an Olympus FV1000 confocal laser scanning microscope. Images were processed using ImageJ software.
Cellular studies were extended to a more physiologically relevant model for H2O2 detection. H2O2 is particularly active in the brain and neuronal tissue, triggered by the metabolism of neurotransmitters.^[28] The brain and spinal cord from 3-4 week old female C57BL/6J mice were excised, frozen in OCT medium, and 10 μm sagittal cryosections were prepared for staining with FBBBE and FBn. At this age, the mice undergo extensive neuronal development and remodeling. Such activity has been associated with higher levels of neurotransmitter activity and ROS in both neurons and microglial cells in the brain. Consistent with the previous experiments, the sections were either incubated with PBS (unstimulated) or H2O2 (FIG. 6). […]

[1] = Solubility in aqueous buffer; assay type: physicochemical; conditions: ~1% DMSO (by volume), micromolar concentrations
Description: The corresponding control compound lacking the boronic ester trigger was also synthesized for evaluation (FIG. 3, CBn). Both CBBE and FBBBE were quite soluble in aqueous buffer, using only ˜1% DMSO (by volume) when preparing samples at micromolar concentrations.

RAW 264.7 cells = experiment: Confocal fluorescence imaging of H2O2 in RAW 264.7 macrophages; assay type: cell-based, Murine; conditions: for fluorescence in cells treated with PBS, LPS or H2O2: 50 μM compound 1 h, fixed RAW 264.7 cells
Description: RAW 264.7 macrophages were grown in DMEM supplemented with 10% heat-inactivated fetal bovine serum, 2 mM L-glutamine, 100 μg/mL penicillin, and 100 μg/mL streptomycin (Life Technologies, Carlsbad, Calif.). For confocal microscopy, the RAW 264.7 cells were seeded at 250,000 in glass bottom 35 mm dishes (MatTek Corporation, Ashland, Mass.) and post-adhering (5 h), some dishes were treated with 1 μg/mL of LPS (Sigma-Aldrich, St. Louis, Mo.) for 24 h. Other dishes were treated the next day after plating with either 100 μM H2O2 for 1 h or PBS for 1 h. Cells were washed twice with PBS and fixed in ice-cold 95% ethanol for 15 min. Cells were twice rinsed with PBS and incubated with either 50 μM probe (FBBBE) or 50 μM control (FBn) for 1 h at room temperature. Cells were washed twice with PBS and coverslips were mounted over cells using Aqua Mount (Thermo Scientific, Waltham, Mass.). Confocal images were obtained at 80× magnification on an Olympus FV1000 confocal laser scanning microscope. Images were processed using ImageJ software (NIH).
FBBBE was examined for H2O2 detection in biological samples via confocal microscopy. Murine macrophage RAW 264.7 cells were treated with PBS buffer (unstimulated cells), lipopolysaccharide (LPS, stimulated cells), or with exogenous H2O2, followed by incubation with either FBBBE (FIG. 5a-c) or FBn (FIG. 5d-f). The inflammatory effects of LPS in macrophages are well established and result in a burst of reactive oxygen species and reactive nitrogen intermediates among other inflammatory signatures.^[27] […] The cells are washed and fixed prior to incubating with the probe.

[2] = Fluorescent response of probe to hypochlorite compared with H2O2; assay type: physicochemical; conditions: 1 μM probe, 100 μM ROS, 50 mM HEPES pH 7.5, 25° C.
Description: FIG. 16. Histograms of fluorescent responses of 1 μM FBBBE to hydrogen peroxide (H2O2) and hypochlorite (OCl^−): (Data shown are for 100 μM of each ROS) hydrogen peroxide and hypochlorite were delivered from 30% and 5% aqueous solutions, respectively and spectra were acquired in 50 mM HEPES (pH 7.5) wherein all data were obtained after incubation with the appropriate ROS at 25° C.; the collected emission was integrated between […] (λex=480 nm), and bars represent relative responses (left to right) at 5 (white), 15 (light gray), 30 (gray), 45 (dark gray), and 60 min (black) after addition of ROS.
Additional studies were performed to quantify the fluorescence turn-on for each probe to directly compare the sensitivity to H2O2. […] To determine the sensitivity of these probes in a more quantitative fashion, pseudo first-order kinetic measurements were performed using UV-Vis absorption spectroscopy. The observed rate constants for FBBBE and CBBE activation by H2O2 were kobs=3.1×10-5 s-1 and kobs=4.6×10-3 s-1, respectively. It was determined that the deprotection of CBBE was much faster than FBBBE. This may be likely due to the fact that FBBBE contains two boronic ester triggers that are required for complete release of the fluorophore. […]

[3] = Fluorescence response of the probes to H2O2 (luminescence spectroscopy, fluorescence turn-on); assay type: physicochemical; conditions: for increase in fluorescence in response to excess H2O2 (fluorescence turn-on): 1 μM probe, 50 mM HEPES pH 7.5, H2O2 300 eq (300 μM), ratio of integrated final and initial emission; for change of emission on treatment with H2O2: 50 mM HEPES pH 7.5; for relation of relative emission to H2O2 concentration: 15 min incubation with H2O2, integrated emission
Description: Fluorescence emission spectra were recorded with a Perkin-Elmer LS-55 fluorescence spectrometer. To a 2.0 mL solution of probe of varying concentrations in HEPES buffer (50 mM, pH 7.5) was added H2O2 in HEPES to monitor fluorescence turn-on. Spectra were monitored over time at room temperature with quartz cuvettes.
To quantitate the fluorescence turn-on, a sample of each probe (1 μM in 50 mM HEPES pH 7.5) was prepared. An excess of H2O2 (300 eq, 300 μM) was added to the latent fluorophore and spectra were recorded until no increase in fluorescence intensity was observed, signifying a complete reaction. The collected initial and final emission spectrum were integrated, and the ratio reports the fluorescence turn on.
FBBBE and CBBE were evaluated for H2O2 sensitivity under simulated physiological conditions (50 mM HEPES, pH 7.5). For FBBBE, the installation of the benzyl protecting group forces the compound to remain in the closed lactone form, rendering FBBBE (and FBn) nonfluorescent. […] Along with the observed fluorescence increase, the absorption spectrum of FBBBE considerably changed upon H2O2 addition with a large increase in the visible absorption band (λmax=494 nm). The final spectrum recorded was identical to that of an authentic sample of fluorescein, providing additional proof that the probe was undergoing complete deprotection to the desired product (FIG. 7). […] FBBBE was incubated with different concentrations of H2O2 for 15 min and then the emission spectrum was collected.
The coumarin-based compound, CBBE, was nonfluorescent in the absence of H2O2. […] (FIG. 12).
Additional studies were performed to quantify the fluorescence turn-on for each probe to directly compare the sensitivity to H2O2. […] To determine the sensitivity of these probes in a more quantitative fashion, pseudo first-order kinetic measurements were performed using UV-Vis absorption spectroscopy. The observed rate constants for FBBBE and CBBE activation by H2O2 were kobs=3.1×10-5 s-1 and kobs=4.6×10-3 s-1, respectively. It was determined that the deprotection of CBBE was much faster than FBBBE. This may be likely due to the fact that FBBBE contains two boronic ester triggers that are required for complete release of the fluorophore. Recently, it has been shown that boronic ester based probes can be sensitive to other biologically relevant ROS, such as hypochlorite (—OCl) and peroxynitrite (—ONOO).^[26]

[4] = cited from earlier work

SMILES | fluorescence turn-on in brain tissue (mouse brain) | solubility in aqueous buffer [1] | fluorescence in cells treated with PBS, LPS or H2O2 (RAW 264.7 cells) | increase in fluorescence in response to excess H2O2 (fluorescence turn-on) [3] | change of emission on treatment with H2O2 [3] | relation of relative emission to H2O2 concentration [3] | other results
CC1(C)OB(c2ccc(COc3ccc4c(c3)Oc3cc(OCc5ccc(B6OC(C)(C)C(C)(C)O6)cc5)ccc3C43OC(=O)c4ccccc43)cc2)OC1(C)C [FBBBE, 3′,6′-bis((4-(4,4,5,5-tetramethyl-1,3,2-dioxaborolan-2-yl)benzyl)oxy)-3H-spiro[isobenzofuran-1,9′-xanthen]-3-one] | sufficient to activate the probe | quite soluble | observed in all cells | 52 fold | large increase in fluorescence | linear correlation | fluorescence in spinal cord tissue with exogenous H2O2 (mouse spinal cord; 100 μM H2O2, compared to brain tissue): minimal amount of fluorescence; probe activation in unstimulated spinal cord tissue (mouse spinal cord; PBS): essentially inactive; effect of exogenous H2O2 on fluorescence in brain tissue (mouse brain; 50 μM probe, 100 μM H2O2 vs PBS): did not alter the fluorescence levels observed; mean fluorescence, PBS or H2O2 vs LPS treated cells (RAW 264.7 cells; 50 μM probe, 1 μg/mL LPS 24 h, p<0.001): statistically different; mean fluorescence, PBS vs H2O2 treated cells (RAW 264.7 cells; 50 μM probe, 100 μM H2O2 1 h): not statistically different; sensitivity to other ROS (OCl-) compared to H2O2 [2]: less sensitive
CC1(C)OB(c2ccc(COc3ccc4ccc(=O)oc4c3)cc2)OC1(C)C [CBBE, 7-((4-(4,4,5,5-tetramethyl-1,3,2-dioxaborolan-2-yl)benzyl)oxy)-2H-chromen-2-one] | – | quite soluble | – | 57 fold | quickly turned on | linear correlation | –
O=c1ccc2ccc(OCc3ccccc3)cc2o1 [CBn, 7-(benzyloxy)-2H-chromen-2-one, reference compound] | – | – | – | – | no change | – | –
O=C1OC2(c3ccc(OCc4ccccc4)cc3Oc3cc(OCc4ccccc4)ccc32)c2ccccc21 [FBn, 3′,6′-bis(benzyloxy)-3H-spiro[isobenzofuran-1,9′-xanthen]-3-one, reference compound] | no fluorescence turn on was observed | – | no turn on of fluorescence in any of the cells | – | does not show any changes | – | –
O=C1OC2(c3ccc(O)cc3Oc3cc(O)ccc32)c2ccccc21 [Fluorescein] | – | – | – | – | – | – | water solubility [4]: excellent water solubility
